Assay in all cases: NCI-60 cell line screen, 48 h
The subject of experiment [1] is MCF7 breast.
The test system of experiment [2] is A498 renal.
The test system of experiment [3] is HT29 colon.
The subject of experiment [4] is TK-10 renal.
Experiment [5] relates to CAKI-1 renal.
Experiment [6] has as its system SNB-19 CNS.
Experiment [7] has as its system SF-295 CNS.
The subject of experiment [8] is SF-268 CNS.
Experiment [9] deals with SK-MEL-2 melanoma.
Experiment [10] deals with HL-60(TB) leukemia.

SMILES strings stand for the structures. “And” between values parts separate entries of the source, which are not always exact repeats. Equal values may be shown once.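 Method: 48-hour compound exposure of cells in 96-well plates, five concentrations, linear interpolation of endpoints. Abbreviation: GI50, concentration required for 50% inhibition of growth. TGI: concentration producing complete growth inhibition.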

Take `C=C(C)C(=O)Nc1ccc(-c2c(-c3ccc(Oc4nccc(C)n4)c(F)c3)c3c(N)ncnc3n2C)cc1`: the GI50 is 3550 nM in experiment [1]; 1720 nM in [2]; 3220 nM in experiment [3]; 4980 nM in experiment [4]; 1920 nM in [5]; 10700 nM in [6]. The GI50 in experiment [7] was 2590 nM; in experiment [8], 1670 nM; in [9], 2700 nM; in experiment [10], 4740 nM. The TGI is 16.1 µM in experiment [1]; 9.88 µM in [2]; 14.2 µM in experiment [3]; 30 µM in experiment [4]; 8.23 µM in experiment [5]; more than 100 µM in experiment [6]. In addition, the TGI in [7] was 13.4 µM; in experiment [8] it was 16 µM; in experiment [9] it was 9.74 µM; in [10], more than 100 µM.

Take `COc1ccc(/C=C/c2ccnc3ccccc23)cc1OC`: the TGI in [1] amounted to 21.6 µM; in [2] it was 23.6 µM; in experiment [3], 27.4 µM; in experiment [4], 28.9 µM; in experiment [5], 29.3 µM; in experiment [6], 31.2 µM. The TGI in [7] was found to be 46.8 µM; in experiment [8] it was 27.8 µM; in [9], 39 µM; in experiment [10], 25.5 µM.

For `COc1ccc2c(c1)/C(=N/OC(C)=O)c1c-2c(OC)nc2ccccc12`, the GI50 is 88300 nM in experiment [1]; more than 100000 nM in experiment [2]; more than 100000 nM in experiment [3]; 79100 nM in experiment [4]; more than 100000 nM in [5]; more than 100000 nM in [6]. The GI50 in [7], in experiment [8], in [9] and in [10] was more than 100000 nM each time. In addition, the TGI in experiment [1], in [2], in experiment [3], in experiment [4], in [5] and in [6] was more than 100 µM in each case. The TGI in experiment [7], in experiment [8], in experiment [9] and in [10] was more than 100 µM throughout.

For the molecule `COC(=O)c1cc(-c2ccc(S(C)(=O)=O)cc2)[nH]c1N/N=C/c1c(Cl)cccc1Cl`, the GI50 is 329 nM in experiment [1]; 334 nM in experiment [2]; 373 nM in experiment [3]; 988 nM in experiment [4]; 377 nM in experiment [5]; 516 nM in experiment [6]. The GI50 in experiment [7] was 281 nM; in experiment [8] it was 587 nM; in experiment [9], 765 nM; in [10] it was 570 nM. The TGI is 20.8 µM in [1]; 4.75 µM in [2]; 4.45 µM in experiment [3]; 38.3 µM in experiment [4]; 13.9 µM in experiment [5]; more than 100 µM in [6]. The TGI in experiment [7] is 3.24 µM; in experiment [8], more than 56.4 µM; in experiment [9] it was more than 52.9 µM; in experiment [10], more than 100 µM.

For the molecule `COc1ccc2c(c1)C(=O)c1c-2n(CCCN(C)C)c(=O)c2cc([N+](=O)[O-])ccc12`, the GI50 in experiment [1] was less than 10 nM; in [2], 36 nM; in experiment [3] it was less than 10 nM; in experiment [4] it was 604 nM; in experiment [5], less than 10 nM; in [6], less than 10 nM. The GI50 is less than 10 nM in [7], less than 10 nM in experiment [8], 545 nM in experiment [9] and less than 10 nM in experiment [10]. The TGI in experiment [1] was 0.338 µM; in [2] it was 0.694 µM; in experiment [3], 0.61 µM; in experiment [4], 5.38 µM; in [6] it was 7.93 µM; in experiment [7], less than 0.0188 µM. Also, the TGI in [8] was found to be 2.29 µM; in experiment [9], 7.17 µM; in experiment [10] it was 0.245 µM.

Take `CC1(C)C(=O)/C=C\C(=O)C(C)(C)C(=O)/C=C\C(=O)C(C)(C)C2=CC=C(O2)C(C)(C)C(=O)/C=C\C1=O`: the TGI was 39.8 µM in experiment [1]; 30.9 µM in [2]; 8.45 µM in experiment [3]; 13.4 µM in [4]; 7.91 µM in experiment [5]; 30.6 µM in [6]. For the same molecule, the TGI was 31.1 µM in experiment [7], 43.8 µM in experiment [8], 25.5 µM in [9] and 2.24 µM in [10].

For `COc1ccc2nc3ccccc3c(NCCNCC(C)O)c2c1` (centres undefined), the GI50 was 315 nM in experiment [1]; 73.4 nM in experiment [2]; 323 nM in experiment [3]; 540 nM in experiment [4]; 434 nM in [5]; 391 nM in experiment [6]. Moreover, the GI50 in experiment [7] is 360 nM; in experiment [8], 583 nM; in experiment [9] it was 785 nM; in [10], 492 nM. The TGI in experiment [1] came to 4.14 µM; in experiment [2], 0.73 µM; in [3], 1.9 µM; in experiment [4], 6.04 µM; in experiment [5], 11.4 µM; in experiment [6], 10.3 µM. The TGI in [7] was determined as 4.02 µM; in experiment [8], 11.1 µM; in [9] it was 2.8 µM; in [10], 4.26 µM.

`CC/C=C\C[C@H]1C/C=C2/C(=O)C(Cl)=C[C@@H]2C/C=C\CCCC(=O)O1`: the GI50 in experiment [1] is 83.6 nM; in [2] it was 560 nM; in [3], 325 nM; in [4], 597 nM; in [5] it was 450 nM; in experiment [6], 665 nM. The GI50 in [7] was 705 nM; in [8], 496 nM; in experiment [9], 453 nM; in [10] it was 527 nM. Further, the TGI in experiment [1] was 2.61 µM; in [2] it was 1.43 µM; in [3], 0.79 µM; in experiment [4], 1.41 µM; in experiment [5], 1.51 µM; in experiment [6], 3.54 µM. Also, the TGI in experiment [7] is 2.26 µM; in [8] it was 2.39 µM; in experiment [9], 1.13 µM; in experiment [10], 2.7 µM.

`N=C(CC(=O)Nc1ccccn1)c1ccccc1`: the TGI in experiment [1], in experiment [2], in experiment [3], in experiment [4], in [5] and in experiment [6] was more than 100 µM each time. Also, the TGI in [7], in experiment [8], in experiment [9] and in experiment [10] was more than 100 µM in each case.

With `CNC(=O)c1cc(Oc2ccc(NC(=O)Nc3cc(C(C)(C)C)nn3-c3ccc4ncccc4c3)c(F)c2)ccn1`, the GI50 in experiment [1] is 1150 nM and 1050 nM; in experiment [2], 1260 nM and 307 nM; in experiment [3], 520 nM and 505 nM; in experiment [4] it was 1830 nM and 1700 nM; in experiment [5], 523 nM and 699 nM; in experiment [6], 3100 nM and 3090 nM. In addition, the GI50 is 1690 nM and 1580 nM in [7]; 1410 nM and 1520 nM in [8]; 1810 nM and 2550 nM in experiment [9]; 3330 nM and 2530 nM in [10]. Moreover, the TGI in experiment [1] is 9.13 µM and > 53 µM; in [2], 3.21 µM and 2.42 µM; in [3], 3.65 µM and 5.07 µM; in experiment [4], 6.79 µM and 6.93 µM; in experiment [5], 4.65 µM and 4.32 µM; in [6] it was 8.87 µM and 7.98 µM. Further, the TGI in [7] is 8.26 µM and 5.62 µM; in experiment [8], 5.16 µM and 4.49 µM; in experiment [9], 4.34 µM and 5.45 µM; in experiment [10], 6.57 µM and 5.8 µM.

With `CN1CCN(c2ccc(NC3=CC(=O)c4ncncc4C3=O)cc2)CC1`, the GI50 in [1] is 186 nM; in [2], 1420 nM; in [3], 1720 nM; in experiment [4] it was 2010 nM; in [5] it was 1340 nM; in experiment [6], 1520 nM. Moreover, the GI50 in experiment [7] is 511 nM; in [8], 1770 nM; in experiment [9], 1540 nM; in experiment [10], 249 nM. Moreover, the TGI in [1] is 0.405 µM; in experiment [2] it was 2.8 µM; in [3] it was 5.98 µM; in experiment [4], 3.81 µM; in [5] it was 2.68 µM; in experiment [6] it was 2.93 µM. The TGI in experiment [7] was 1.66 µM; in [8] it was 5.73 µM; in experiment [9], 3.45 µM; in experiment [10], 0.635 µM.

Take `O=C1/C(=C/c2ccc([N+](=O)[O-])o2)Oc2ccc(Cl)cc21`: the GI50 in experiment [1] was 1420 nM; in experiment [2], 14400 nM; in experiment [3], 1870 nM; in [4], 2140 nM; in [5], 1700 nM; in [6], 3940 nM. The GI50 is 11500 nM in experiment [7], 1840 nM in [8], 1930 nM in experiment [9] and 2080 nM in experiment [10]. Besides, the TGI stood at 3.92 µM in experiment [1]; 34 µM in experiment [2]; 3.98 µM in experiment [3]; 3.85 µM in experiment [4]; 3.61 µM in experiment [5]; 16.7 µM in [6]. Also, the TGI in [7] was found to be 49.1 µM; in experiment [8], 3.77 µM; in experiment [9] it was 3.83 µM; in [10] it was 18.3 µM.
